# Experiment: Compound was tested for cytotoxic activity against murine colon 26-L5 carcinoma cells
# Format: functional
# Settings: Mus musculus; read-out: ED50 (the source's name)
row,SMILES,EC50 [µM]
1,COC(=O)[C@]1(C)[C@@H](O)C[C@H](O)[C@]23C[C@]24CC[C@]2(C)[C@@H]([C@H](C=O)C/C=C/C(C)(C)O)CC[C@@]2(C)[C@@H]4CC[C@@H]13,43.8
2,C=C(CC[C@@H](C)[C@H]1CC[C@@]2(C)[C@@H]3CC[C@H]4[C@](C)(C(=O)O)[C@@H](O)C[C@H](OC(C)=O)[C@@]45C[C@@]35CC[C@]12C)C(C)C,57.6
3,C=C(C)[C@@H]1CC[C@H]([C@H]2CC[C@@]3(C)[C@@H]4CC[C@H]5[C@](C)(C(=O)OC)[C@@H](O)C[C@H](O)[C@@]56C[C@@]46CC[C@]23C)[C@@H](OC)O1,18.1
4,C=C(CC[C@@H](C)[C@H]1CC[C@@]2(C)[C@@H]3CC[C@H]4[C@](C)(C(=O)O)[C@@H](O)C[C@H](O)[C@@]45C[C@@]35CC[C@]12C)C(C)C,49.6
5,C=C(CC[C@@H](C)[C@H]1CC[C@@]2(C)[C@@H]3CC[C@H]4[C@](C)(C(=O)OC)[C@@H](OC(C)=O)C[C@@H]5O[C@H](C[C@]12C)[C@]31C[C@]541)C(C)C,77.8
6,C=C(CC[C@@H](C)[C@H]1CC[C@@]2(C)[C@@H]3CC[C@H]4[C@](C)(C(=O)O)[C@@H](O)CC[C@@]45C[C@@]35CC[C@]12C)C(C)C,62.4
7,COC(=O)[C@]1(C)[C@@H](O)C[C@H](O)[C@]23C[C@]24CC[C@]2(C)[C@@H]([C@H](C=O)C/C=C/C(C)(C)OO)CC[C@@]2(C)[C@@H]4CC[C@@H]13,9.54
8,C=C(CC[C@@H](C)[C@H]1CC[C@@]2(C)[C@@H]3CC[C@H]4[C@](C)(C(=O)O)[C@@H](O)CC(=O)[C@@]45C[C@@]35CC[C@]12C)C(C)C,58.6
9,C=C(CC[C@@H](C)[C@H]1CC[C@@]2(C)[C@@H]3CC[C@H]4[C@](C)(C(=O)O)[C@@H](OC(C)=O)C[C@H](OC(C)=O)[C@@]45C[C@@]35CC[C@]12C)C(C)C,52.5
10,C=C(CC[C@@H](C)[C@H]1CC[C@@]2(C)[C@@H]3CC[C@H]4[C@](C)(C(=O)OC)[C@@H](O)C[C@@H]5O[C@H](C[C@]12C)[C@]31C[C@]541)C(C)C,5.42
